Reference: patent US20110184147A1, “ENZYME SUBSTRATE FOR LABELING OF PROTEIN” (priority 2008, published 2011)
Entries after “also recorded” stand apart in the source; their conditions may differ.

What was measured:
Format in all cases: biochemical, microbial
MTG [1] = target: T1, MTG (Streptomyces mobaraensis, UniProt P81453); assay: MTG-catalyzed introduction of fluorescent substrates into NK6-AP (SDS-PAGE, fluorescent imager)
T1 construct: purchased AJINOMOTO (supplied as a gift)
Procedure: To perform a binding reaction, the fluorescent substrate (FITC-ε-Acp-QG, FITC-β-Ala-QG, Flc-QG, TR-β-Ala-QG or Dns-ε-Acp-QG), NK6-AP and MTG were added to 10 mM Tris-HCl (pH 8) to give respective final concentrations of 1 mM, 0.5 mg/ml and 1 U/ml and they were thoroughly agitated and the resulting solution was left to stand overnight at 4° C. For the purpose of comparison, an MTG-free sample was prepared.
After the reaction, the samples were subjected to SDS-polyacrylamide gel electrophoresis (SDS-PAGE). The gel from SDS-PAGE was examined with a fluorescent imager before it was stained with Coomassie Brilliant Blue (CBB) in solution. For the sample containing Dns-ε-Acp-QG, examination was made with a transilluminator.
(§1) A study was made using FITC-β-Ala-QG as a fluorescent substrate. The reaction conditions for introducing FITC-β-Ala-QG into NK6-AP were as follows: FITC-β-Ala-QG, NK6-AP and MTG were added to 10 mM Tris-HCl (pH 8) to give respective final concentrations of 0.1 mM, 0.5 mg/ml and 0.1 U/ml and they were thoroughly agitated at 4° C. for 0-5 hours. To trace the binding, the gel from SDS-PAGE was analyzed by a fluorescent imager.
as §1, with “1-1000 μM,” for “0.1 mM,”, “15 minutes. Tracing on” for “0-5 hours. To trace”, “sample after” for “binding,”, “reaction” for “gel from SDS-PAGE”, “performed” for “analyzed”, “the same procedure as in Experiment 2-4.” for “a fluorescent imager.”
Dns-β-Ala-QG-biotin, NK6-AP and MTG were added to 20 mM Tris-HCl (pH 8) to give respective final concentrations of 100 μM, 0.5 mg/ml, and 1 U/ml. For the purpose of comparison, an MTG-free sample was prepared. The ingredients were thoroughly agitated and the resulting solution was left to stand overnight at 4° C. for reaction.
After the reaction, the samples were subjected to SDS-polyacrylamide gel electrophoresis (SDS-PAGE). The gel from SDS-PAGE was examined with a transilluminator before it was stained with Coomassie Brilliant Blue (CBB) in solution.
To a 50 mM buffer whose pH was varied over the range of from 5 to 9, FITC-β-Ala-QG, NK6-AP and MTG were added to give respective final concentrations of 0.1 mM, 0.5 mg/ml, and 0.1 U/ml. These ingredients were well stirred and left to stand at 4° C. for reaction. After 6-hr or 15-minute reaction, the sample was mixed with a sample buffer and heated at 95° C. for 15 minutes to stop the reaction. Thereafter, SDS-polyacrylamide gel electrophoresis (SDS-PAGE) was applied. The gel from SDS-PAGE was stained with Coomassie Brilliant Blue (CBB) and observed with a fluorescent imager.
(§2) To 50 mM Tris-HCl (pH 8), FITC-β-Ala-QG, NK6-AP and MTG were added to give respective final concentrations of 0.1 mM, 0.5 mg/ml, and 0.001-1 U/ml. These ingredients were well stirred and left to stand at 4° C. for reaction. The reaction was stopped and evaluation was made by the same procedures as in Experiment 2-2.
as §2, with “FITC-β-Ala-QG-alkyne,” for “FITC-β-Ala-QG,”, “0.1” for “0.001-1”, “For the purpose of comparison, a MTG-free sample was also prepared. Both samples” for “These ingredients”

MTG [2] = target: T1, MTG; assay: MTG-catalyzed binding reaction of fluorescent substrate with β-casein; settings: substrate 1 mM, β-casein 0.5 mg/ml, MTG 1 U/ml, phosphate buffer pH 7, overnight 27° C.
Procedure: To perform a binding reaction, FITC-β-Ala-QG, β-casein and GTG were added to 50 mM HEPES (5 mM NaCl, 10 mM CaCl2, pH 7.4) to give respective final concentrations of 1 mM, 0.5 mg/ml and 0.2 U/ml and the resulting mixture was left to stand overnight at 27° C. Two comparative samples were prepared; one was a GTG-free sample and the other was prepared by performing an MTG-catalyzed reaction. For the MTG-catalyzed binding reaction, FITC-β-Ala-QG, β-casein and MTG were added to a 10 mM phosphate buffer (pH 7) to give respective final concentrations of 1 mM, 0.5 mg/ml and 1 U/ml and the resulting mixture was left to stand overnight at 27° C. Tracing on the sample after the reaction was performed by the same procedure as in Experiment 2-2.

MTG [3] = target: T1, MTG; assay: MTG-catalyzed introduction of fluorescent substrates into anti-lysozyme IgG2a antibody; settings: substrate 1 mM, mouse anti-lysozyme IgG2a 0.5 mg/ml, MTG 1 U/ml, pH 7, overnight 4° C.; reduced SDS-PAGE
Procedure: A fluorescent substrate (FITC-ε-Acp-QG, FITC-β-Ala-QG, TR-β-Ala-QG or […]), mouse-derived anti-lysozyme IgG2a antibody (monoclonal) and MTG were added to a 10 mM phosphate buffer (pH 7) to give respective final concentrations of 1 mM, 0.5 mg/ml and 1 U/ml. For the purpose of comparison, an MTG-free sample was prepared. The ingredients were thoroughly agitated and the resulting solution was left to stand overnight at 4° C.
After the reaction, the samples were subjected to SDS-PAGE. The gel from SDS-PAGE was examined with a fluorescent imager before it was stained with a CBB dye solution. For the Dns-ε-Acp-QG containing sample, examination was made with a transilluminator.

[4] = NK6-AP 0.5 mg/ml, MTG 0.1 U/ml, pH 8, 4° C., 15 minutes

T1 sequence (P81453 77-407): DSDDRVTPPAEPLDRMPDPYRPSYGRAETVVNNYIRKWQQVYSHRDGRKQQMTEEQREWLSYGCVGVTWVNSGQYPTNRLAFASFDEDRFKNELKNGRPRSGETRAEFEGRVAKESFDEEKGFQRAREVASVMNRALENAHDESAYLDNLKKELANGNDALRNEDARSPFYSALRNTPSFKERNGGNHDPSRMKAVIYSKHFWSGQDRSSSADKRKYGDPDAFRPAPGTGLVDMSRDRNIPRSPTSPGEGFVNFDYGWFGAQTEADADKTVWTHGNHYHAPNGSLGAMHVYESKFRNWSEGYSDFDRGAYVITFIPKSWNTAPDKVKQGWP

## NC(=O)CCC(NC(=O)CCNC(=S)Nc1ccc(-c2c3ccc(=O)cc-3oc3cc(O)ccc23)c(C(=O)O)c1)C(=O)NCC(=O)O (stereo not drawn) [FITC-β-Ala-QG]
MTG [1]; 6-hr reaction, pH 5 to 9, substrate 0.1 mM, MTG 0.1 U/ml, 4° C.
  pH range with comparable levels of fluorescent intensity (reaction saturated): 5-8
MTG [1]; 15-min reaction, pH 5 to 9, substrate 0.1 mM, MTG 0.1 U/ml, 4° C.
  pH of rapid introduction into NK6-AP: rapid introduction was achieved at pH values of 6 and 8
MTG [1]; [4]
  Maximum substrate concentration at which reaction progressed: 1 mM
  Minimum substrate concentration at which reaction progressed and detection was possible: 1 µM
MTG [1]; NK6-AP, substrate 0.1 mM, pH 8, 4° C.
  Degree of introduction into NK6-AP at 1 U MTG: did not drop
MTG [1]; NK6-AP, substrate 0.1 mM, pH 8, 4° C., MTG 0.001-1 U/ml
  MTG concentration at which an adequately rapid reaction proceeded: 0.1 U
MTG [1]; substrate 1 mM, NK6-AP 0.5 mg/ml, MTG 1 U/ml, 10 mM Tris-HCl pH 8, overnight 4° C.
  Reactivity of MTG for fluorescent substrate (introduction into NK6-AP): served as substrates of MTG; also recorded: recognizable as a substrate of MTG
MTG [2]
  Fluorescence intensity of MTG lane compared with GTG lane: higher fluorescence intensity
MTG [3]
  Reactivity of antibody with fluorescent substrate by MTG catalysis: H chains of the antibody are modified
